Positions of bridges follow the written chain, without caps; N, C: chain ends. Non-standard residues stand in square brackets, D forms with d. Residues, ends and D or L forms follow the SMILES beside them. *: point of attachment. Biotin = O=C1N[C@H]2[C@H](CS[C@H]2CCCCC(=O)*)N1; Hyp = O=C(O)[C@@H]1C[C@@H](O)CN1
Experiments:
[1] = system: M2 macrophages; test: Binding study of biotinylated peptides on polarized bone marrow-derived macrophages (streptavidin-FITC, flow cytometry); format: cell-based, mouse; settings: for binding activity to M2 macrophages (in words): biotinylated peptide, on ice 20 min
Protocol: All animal handling protocols were approved by the University of Washington Institutional Animal Care and Use Committee. Bone marrow harvest was performed following the previously reported protocol. Briefly, femur and tibia were excised from 6-8 week-old female c57bl6/027 mice. Cuts were made on the ends of each bone, and RPMI 1640 medium was used to flush out bone marrow cells via 18G needle. The cells were cultured on petri dishes in RPMI 1640 medium supplemented with 20% donor horse serum, 1% antibiotic-antimycotic (AbAm), and 20 ng/mL M-CSF. After 7 d of culture, macrophages were activated by replacing M-CSF with 25 ng/mL IFN-γ and 100 ng/mL LPS for M1 macrophage or 25 ng/mL IL-4 for M2 macrophage. The macrophages were activated for 2 d and then scraped off the petri dishes with cell lifter for binding studies.
Peptide solutions at different concentrations for binding study were prepared by dilutions from the stock solution (10 mg/mL in dH2O) with PBS containing 1% BSA (PBSA). M1 and M2 macrophages (50,000 cells/well) were seeded on a black 96-well plate and incubated in the peptide solutions on ice for 20 min. Unbound peptides were washed off with PBSA twice. The macrophages were subsequently incubated with streptavidin-FITC for 15 min on ice to probe for the bound peptides. Excess streptavidin-FITC was washed off with PBSA twice, and the macrophages were then resuspended in PBS for analysis by MACSQuant Flow Cytometer (Miltenyi Biotec, San Diego, Calif.). Propidium iodide was added to the samples before the data acquisition to discriminate dead cells. Flow cytometry data were analyzed with FlowJo Analysis Software (Tree Star, Ashland, Oreg.). Binding study of peptides post serum incubation was similarly performed with the following additions: The peptides (5 mM stock solution in H2O) were diluted in serum to a final concentration of 0.5 mM and incubated at 37° C. in an incubator. At each time point, an aliquot of the peptides was drawn and diluted in PBS to the final concentration for the binding study. The diluted aliquot was heated at 80° C. for 30 min to inactivate serum proteins, stored in a −20° C. freezer, and thawed for use in the binding study after aliquots at all time points were collected.
All animal handling protocols were approved by the University of Washington Institutional Animal Care and Use Committee. Bone marrow-derived cells were harvested from female c57bl/6 mice as previously described. In brief, femurs and tibias of the mice were excised and flushed with RPMI 1640 medium via an 18G needle. The cells were cultured on petri dishes containing RPMI 1640 medium supplemented with 20% donor horse serum, 1% antibioticantimycotic (AbAm), and 20 ng/mL M-CSF. After 7 d in culture, the medium was replaced with an activation medium whereby M-CSF was replaced with 25 ng/mL IFN-γ and 100 ng/mL LPS for M1 activation or with 25 ng/mL IL-4 for M2 activation. For M1 activation medium, AbAm was replaced with 1% penicillin-streptomycin (Pen-Strep). After 2 d of activation, the activated macrophages were scraped off the petri dishes for binding studies.
Biotinylated peptide stock solutions were prepared in H2O at 10 mg/mL concentration and quantified for the exact concentration using Quant*Tag Biotin quantification kit. The stock solutions were diluted in PBS with 1% BSA (PBSA) to different concentrations for binding studies. Activated macrophages were seeded on a black 96-well plate (50,000 cells/well) and incubated with the peptide solutions for 20 min on ice. The cells were washed twice with PBSA and subsequently incubated with streptavidin-FITC for 15 min on ice. After two additional washes, the cells were resuspended in PBS for analysis via MACSQuant Flow Cytometer (Miltenyi Biotec, San Diego, Calif.). Propidium iodide (PI) was added before running each sample to assess for cell viability. Data analysis was processed on FlowJo Analysis Software (Tree Star, Ashland, Oreg.). […]

[2] = Serum stability study in normal mouse serum, analysis by MALDI-TOF MS; settings: mouse serum
Protocol: The peptide of interest (30 μL of 10 mg/mL stock solution in dH2O) was added to normal mouse serum (300 μL) and incubated at 37° C. in an incubator. At each time point, an aliquot of 40 μL was drawn and an equal volume of ACN was added to the aliquot to precipitate serum proteins. The cloudy mixture was centrifuged at 10,000 rpm for 5 min and then supernatant removed. A solution of 1:1 H2O/ACN (80 μL) was added to the pellet and sonicated for 10 min to further extract the remaining peptides. This resuspended mixture was then centrifuged, and the supernatant was pooled with the former and vacuum-dried on a Speedvac machine. The dried pellet was solubilized in H2O (50 μL) by sonication for 10 min. The mixture was then centrifuged, and the supernatant was drawn and analyzed by MALDI-TOF MS.
To evaluate serum stability of M2pep, the peptide was incubated in mouse serum, and aliquots of the serum at various time points were withdrawn for analysis of degradation patterns by MALDI-TOF MS.
Different M2pep analogs (30 μL from 10 mg/mL stock solution in H2O) were incubated in normal mouse serum (300 μL) at 37° C. in an incubator. An aliquot of the serum (40 μL) was drawn at different time intervals and precipitated with an equal volume of cold ACN. The mixture was centrifuged at 15,000 rpm for 5 min, and the supernatant was collected. A solution of H2O/ACN (1:1 v/v, 80 μL) was added to the pellet with a 10-min sonication to further extract residual peptides. The mixture was then centrifuged. The supernatant was pooled with the former and dried under vacuum on a Speedvac machine. The peptide pellet was resuspended in H2O (50 μL) with a 10-min sonication before analysis by MALDI-ToF MS.

Compound | binding activity to M2 macrophages (in words) [1] | other results
CC(C)[C@@H]1NC(=O)CNC(=O)[C@H](Cc2c[nH]c3ccccc23)NC(=O)[C@@H]2CCCN2C(=O)[C@H](CC(=O)O)NC(=O)CNC(=O)[C@@H](N)CSSC[C@@H](C(=O)N[C@H](CCCCN)C(=O)N[C@H](CCCCN)C(=O)N[C@H](CCCCN)C(=O)N[C@@H](CCCCNC(=O)CCCC[C@@H]2SC[C@@H]3NC(=O)N[C@@H]32)C(N)=O)NC(=O)CNC(=O)[C@H](Cc2ccc(O)cc2)NC(=O)[C@H](Cc2c[nH]c3ccccc23)NC(=O)[C@H](Cc2ccc(O)cc2)NC(=O)[C@H](CCCNC(=N)N)NC1=O [cRYWY, CGDPWGVRYWYGCkkk] (H-CGDPWGVRYWYGC[dK][dK][dK]K(Biotin)-NH2; disulfide 1-13) | significantly lower binding activity compared to cyclic M2pep(RY)Biotin | 
CC(=O)N[C@@H](Cc1ccc(O)cc1)C(=O)N[C@@H](CCC(=O)O)C(=O)N[C@@H](CCC(N)=O)C(=O)N[C@@H](CC(=O)O)C(=O)N1CCC[C@H]1C(=O)N[C@@H](Cc1c[nH]c2ccccc12)C(=O)NCC(=O)N[C@H](C(=O)N[C@@H](CCCNC(=N)N)C(=O)N[C@@H](Cc1ccc(O)cc1)C(=O)N[C@@H](Cc1c[nH]c2ccccc12)C(=O)N[C@H](Cc1ccc(O)cc1)C(=O)NCC(=O)NCC(=O)NCC(=O)N[C@@H](CO)C(=O)N[C@H](CCCCN)C(=O)N[C@H](CCCCN)C(=O)N[C@H](CCCCN)C(=O)N[C@@H](CCCCNC(=O)CCCC[C@@H]1SC[C@@H]2NC(=O)N[C@@H]21)C(N)=O)C(C)C [Y12y, Ac-YEQDPWGVRYWyGGGSkkk] (Ac-YEQDPWGVRYW[dY]GGGS[dK][dK][dK]K(Biotin)-NH2) | reduced binding activity | serum stability at the W10/W11 endolytic cleavage site [2]: did not improve serum stability at the W10/W11 site
CC(C)[C@@H]1NC(=O)CNC(=O)[C@H](Cc2c[nH]c3ccccc23)NC(=O)[C@@H]2CCCN2C(=O)[C@H](CC(=O)O)NC(=O)CNC(=O)[C@@H](N)CSSC[C@@H](C(=O)N[C@H](CCCCN)C(=O)N[C@H](CCCCN)C(=O)N[C@H](CCCCN)C(=O)N[C@@H](CCCCNC(=O)CCCC[C@@H]2SC[C@@H]3NC(=O)N[C@@H]32)C(N)=O)NC(=O)CNC(=O)[C@H](Cc2c[nH]c3ccccc23)NC(=O)[C@H](Cc2ccc(O)cc2)NC(=O)[C@H](CCCNC(=N)N)NC1=O [cRYW, CGDPWGVRYWGCkkk] (H-CGDPWGVRYWGC[dK][dK][dK]K(Biotin)-NH2; disulfide 1-12) | significantly lower binding activity compared to cyclic M2pep(RY)Biotin | 
CC(=O)N[C@@H](Cc1ccc(O)cc1)C(=O)N[C@@H](CCC(=O)O)C(=O)N[C@@H](CCC(N)=O)C(=O)N[C@@H](CC(=O)O)C(=O)N1CCC[C@H]1C(=O)N[C@@H](Cc1c[nH]c2ccccc12)C(=O)NCC(=O)N[C@H](C(=O)N[C@@H](CCCCN)C(=O)N[C@@H](Cc1ccc(O)cc1)C(=O)N[C@@H](Cc1c[nH]c2ccccc12)C(=O)N[C@@H](Cc1ccc(O)cc1)C(=O)NCC(=O)NCC(=O)NCC(=O)N[C@@H](CO)C(=O)N[C@H](CCCCN)C(=O)N[C@H](CCCCN)C(=O)N[C@H](CCCCN)C(=O)N[C@@H](CCCCNC(=O)CCCC[C@@H]1SC[C@@H]2NC(=O)N[C@@H]21)C(N)=O)C(C)C [W10Y, Ac-YEQDPWGVKYWYGGGSkkk] (Ac-YEQDPWGVKYWYGGGS[dK][dK][dK]K(Biotin)-NH2) | significantly increased binding activity | serum stability at the W10/W11 endolytic cleavage site [2]: did not confer protection at the W10/W11 site
Cc1cn(C)nn1 [Triazole-cyclized M2pep(RY)Biotin] | bind less strongly | 
Biotin-Ahx-GRGRGRG(C-DFBP)G [reference compound] | binds very weakly to macrophages even at 100 μM | 
CC(=O)N[C@@H](CCCNC(=N)N)C(=O)N[C@@H](Cc1ccc(O)cc1)C(=O)N[C@@H](CCC(=O)O)C(=O)N[C@@H](CCC(N)=O)C(=O)N[C@@H](CC(=O)O)C(=O)N1CCC[C@H]1C(=O)N[C@@H](Cc1c[nH]c2ccccc12)C(=O)NCC(=O)N[C@H](C(=O)N[C@@H](CCCNC(=N)N)C(=O)N[C@@H](Cc1ccc(O)cc1)C(=O)N[C@@H](Cc1c[nH]c2ccccc12)C(=O)N[C@H](Cc1ccc(O)cc1)C(=O)NCC(=O)NCC(=O)NCC(=O)N[C@@H](CO)C(=O)N[C@H](CCCCN)C(=O)N[C@H](CCCCN)C(=O)N[C@H](CCCCN)C(=O)N[C@@H](CCCCNC(=O)CCCC[C@@H]1SC[C@@H]2NC(=O)N[C@@H]21)C(N)=O)C(C)C [R0, Ac-RYEQDPWGVRYWyGGGSkkk] (Ac-RYEQDPWGVRYW[dY]GGGS[dK][dK][dK]K(Biotin)-NH2) | did not improve binding activity any further | 
CC(=O)N[C@@H](Cc1ccc(O)cc1)C(=O)N[C@@H](CCC(=O)O)C(=O)N[C@@H](CCC(N)=O)C(=O)N[C@@H](CC(=O)O)C(=O)N1CCC[C@H]1C(=O)N[C@@H](Cc1c[nH]c2ccccc12)C(=O)NCC(=O)N[C@H](C(=O)N[C@@H](CCCCN)C(=O)N[C@@H](Cc1c[nH]c2ccccc12)C(=O)N[C@@H](Cc1c[nH]c2ccccc12)C(=O)N[C@@H](Cc1ccc(O)cc1)C(=O)NCC(=O)NCC(=O)NCC(=O)N[C@@H](CO)C(=O)N[C@@H](CCCCN)C(=O)N[C@@H](CCCCN)C(=O)N[C@@H](CCCCN)C(=O)N[C@@H](CCCCNC(=O)CCCC[C@@H]1SC[C@@H]2NC(=O)N[C@@H]21)C(N)=O)C(C)C [AcM2pepBiotin, Ac-YEQDPWGVKWWYGGGSKKK] | slight, but not statistically significant, reduction in binding activity | binding selectivity to M2 macrophages over M1 macrophages ([1]; M2 versus M1 macrophages): retained binding selectivity to M2 macrophages over M1 macrophages; N-terminal (exolytic) degradation in serum [2]: resistant to N-terminal degradation; overall serum stability (in words) ([2]; 37° C., MALDI-TOF MS): did not improve the overall serum stability
CC(=O)N[C@@H](Cc1ccc(O)cc1)C(=O)N[C@@H](CCC(=O)O)C(=O)N[C@@H](CCC(N)=O)C(=O)N[C@@H](CC(=O)O)C(=O)N1CCC[C@H]1C(=O)N[C@@H](Cc1c[nH]c2ccccc12)C(=O)NCC(=O)N[C@H](C(=O)N[C@@H](CCCCN)C(=O)N[C@H](Cc1c[nH]c2ccccc12)C(=O)N[C@H](Cc1c[nH]c2ccccc12)C(=O)N[C@@H](Cc1ccc(O)cc1)C(=O)NCC(=O)NCC(=O)NCC(=O)N[C@@H](CO)C(=O)N[C@@H](CCCCN)C(=O)N[C@@H](CCCCN)C(=O)N[C@@H](CCCCN)C(=O)N[C@@H](CCCCNC(=O)CCCC[C@@H]1SC[C@@H]2NC(=O)N[C@@H]21)C(N)=O)C(C)C [W(10,11)w, Ac-YEQDPWGVKwwYGGGSKKK] | did not restore the binding activity | 
CC(=O)N[C@@H](Cc1ccc(O)cc1)C(=O)N[C@@H](CCC(=O)O)C(=O)N[C@@H](CCC(N)=O)C(=O)N[C@@H](CC(=O)O)C(=O)N1C[C@H](O)C[C@H]1C(=O)N[C@@H](Cc1c[nH]c2ccccc12)C(=O)NCC(=O)N[C@H](C(=O)N[C@@H](CCCNC(=N)N)C(=O)N[C@@H](Cc1ccc(O)cc1)C(=O)N[C@@H](Cc1c[nH]c2ccccc12)C(=O)N[C@H](Cc1ccc(O)cc1)C(=O)NCC(=O)NCC(=O)NCC(=O)N[C@@H](CO)C(=O)N[C@H](CCCCN)C(=O)N[C@H](CCCCN)C(=O)N[C@H](CCCCN)C(=O)N[C@@H](CCCCNC(=O)CCCC[C@@H]1SC[C@@H]2NC(=O)N[C@@H]21)C(N)=O)C(C)C [P5Hyp, Ac-YEQD(Hyp)WGVRYWyGGGSkkk] (Ac-YEQD[Hyp]WGVRYW[dY]GGGS[dK][dK][dK]K(Biotin)-NH2) | significantly ablated the binding activity | 
Fc1c(F)c(F)c(-c2c(F)c(F)c(F)c(F)c2F)c(F)c1F [DFBP, decafluorobiphenyl, reference compound] | negligible binding to M2 macrophages | 
